Experimental data published in paper PMC8286840, “Identifying SARS-CoV-2 antiviral compounds by screening for small molecule inhibitors of Nsp3 papain-like protease” (Biochemical Journal, 2021).
Where a name gives a salt, the structure may show the parent alone. Read-outs that look alike come from different tables or passages of the source.

Experiments:
[1] = biological target: T1, SARS-CoV-2 PLpro (nsp3 1564–1878) (Severe acute respiratory syndrome coronavirus 2, UniProt P0DTD1); assay: biochemical; design: FRET-quenched peptide (Pro3) cleavage by PLpro, 10 min pre-incubation, slope over 20 min, normalised to no-compound control; details: high concentration screen, read-out: % of control remaining
[2] = biological target: T1, SARS-CoV-2 PLpro (nsp3 1564–1878); assay: biochemical; design: FRET-quenched peptide (Pro3) cleavage by PLpro, 10 min pre-incubation, slope over 20 min, normalised to no-compound control; details: low concentration screen, read-out: % of control remaining

CCCCS(=N)(=O)CCC(N)C(=O)O (racemic) [DL-Buthionine-[S,R]-sulfoximine]
remaining activity at 3.75 µM ([1]; Well no.=363): 93.8%
remaining activity at 1.25 µM ([2]; Well no.=363): 96.1%

COc1ccccc1Oc1c(NS(=O)(=O)c2ccc(C)cn2)nc(-c2ccncc2)nc1OC [Avosentan]
remaining activity at 3.75 µM ([1]; Well no.=7281): 100%
remaining activity at 1.25 µM ([2]; Well no.=7281): 102%

CC(C)Oc1ccc2c(=O)c(-c3ccccc3)coc2c1 [Ipriflavone]
remaining activity at 3.75 µM ([1]; Well no.=5242): 97.9%
remaining activity at 1.25 µM ([2]; Well no.=5242): 95.6%

CCCCCCCCCCCCCC/C=C\CCCC(=O)O [5(Z)-Eicosenoic acid]
remaining activity at 3.75 µM ([1]; Well no.=4408): 92.5%
remaining activity at 1.25 µM ([2]; Well no.=4408): 101%

COc1ccc2c(c1)c(CC(=O)N1CCOCC1)c(C)n2C(=O)c1ccc(Cl)cc1 [Indomethacin morpholinylamide]
remaining activity at 3.75 µM ([1]; Well no.=971): 89.7%
remaining activity at 1.25 µM ([2]; Well no.=971): 94.6%

O=C(Nc1ccc(Cl)cc1)C1CCCN(C(=O)c2cccc(-c3ccco3)c2)C1 (stereo not shown) [CCG-203971]
remaining activity at 3.75 µM ([1]; Well no.=6005): 101%
remaining activity at 1.25 µM ([2]; Well no.=6005): 103%

Cc1cc(C=C2C(=O)C=CC2=O)cc(C)c1O [TX-1918]
remaining activity at 3.75 µM ([1]; Well no.=2677): 98.1%
remaining activity at 1.25 µM ([2]; Well no.=2677): 96.7%

CCc1nc2c(C)nc(C)cc2n1-c1ccc(CCNC(=O)NS(=O)(=O)c2ccc(C)cc2)cc1 [Grapiprant]
remaining activity at 3.75 µM ([1]; Well no.=6998): 95.9%
remaining activity at 1.25 µM ([2]; Well no.=6998): 97.1%

COc1ccc(OC)c2c(=S)c3ccccc3[nH]c12 [Cdk4 Inhibitor II, NSC 625987]
remaining activity at 3.75 µM ([1]; Well no.=2406): 108%
remaining activity at 1.25 µM ([2]; Well no.=2406): 102%

c1cc(-c2cnn3cc(-c4ccc(N5CCNCC5)cc4)cnc23)c2cccnc2c1 [5-(6-(4-(piperazin-1-yl)phenyl)pyrazolo[1,5-a]pyrimidin-3-yl)quinoline]
remaining activity at 3.75 µM ([1]; Well no.=6009): 101%
remaining activity at 1.25 µM ([2]; Well no.=6009): 104%

Oc1cc(O)cc(/C=C/c2ccc(O)c(O)c2)c1 [Piceatannol]
remaining activity at 3.75 µM ([1]; Well no.=948): 92.7%
remaining activity at 3.75 µM ([1]; Well no.=3084): 98.8%
remaining activity at 3.75 µM ([1]; Well no.=3939): 102%
remaining activity at 1.25 µM ([2]; Well no.=948): 98.3%
remaining activity at 1.25 µM ([2]; Well no.=3084): 107%
remaining activity at 1.25 µM ([2]; Well no.=3939): 105%

COc1cccc(CCc2ccccc2OCC(CN(C)C)OC(=O)CCC(=O)O)c1 (stereo not shown) [Sarpogrelate (hydrochloride)]
remaining activity at 3.75 µM ([1]; Well no.=6228): 96.1%
remaining activity at 1.25 µM ([2]; Well no.=6228): 106%

C[C@H](CCC(=O)NCC(=O)O)[C@H]1CC[C@H]2[C@@H]3[C@H](O)C[C@@H]4C[C@H](O)CC[C@]4(C)[C@H]3C[C@H](O)[C@]12C [Glycocholic acid]
remaining activity at 3.75 µM ([1]; Well no.=7068): 105%
remaining activity at 3.75 µM ([1]; Well no.=7165): 101%
remaining activity at 1.25 µM ([2]; Well no.=7068): 106%
remaining activity at 1.25 µM ([2]; Well no.=7165): 104%

N=C(N)c1ccccc1 [Benzamidine hydrochloride]
remaining activity at 3.75 µM ([1]; Well no.=223): 99%
remaining activity at 1.25 µM ([2]; Well no.=223): 99.2%

O=C1C[C@@H](c2ccc(O)c(O)c2)Oc2c1ccc(O[C@@H]1O[C@H](CO)[C@@H](O)[C@H](O)[C@H]1O)c2O [Flavanomarein]
remaining activity at 3.75 µM ([1]; Well no.=3805): 100%
remaining activity at 1.25 µM ([2]; Well no.=3805): 96.3%

CCCc1nc(C)c2c(=O)nc(-c3cc(S(=O)(=O)N4CCN(CC)CC4)ccc3OCC)[nH]n12 [Vardenafil]
remaining activity at 3.75 µM ([1]; Well no.=1780): 97.8%
remaining activity at 1.25 µM ([2]; Well no.=1780): 97.7%

COc1ccc2c3c1O[C@H]1C[C@@H](O)C=C[C@@]31CCN(C)C2
remaining activity at 3.75 µM ([1]; Well no.=3677): 103%
remaining activity at 1.25 µM ([2]; Well no.=3677): 98.7%

O=C1c2cccc3c2[C@H](CCC3)CN1[C@@H]1CN2CCC1CC2 [Palonosetron (Hydrochloride)]
remaining activity at 3.75 µM ([1]; Well no.=6614): 98%
remaining activity at 1.25 µM ([2]; Well no.=6614): 98.5%

NCCC[C@](N)(C(=O)O)C(F)F (racemic) [DL-alpha-Difluoromethylornithine hydrochloride]
remaining activity at 3.75 µM ([1]; Well no.=500): 104%
remaining activity at 1.25 µM ([2]; Well no.=500): 103%

COC(=O)/C=C/C(=O)OC [Dimethyl Fumarate]
remaining activity at 3.75 µM ([1]; Well no.=5294): 94.2%
remaining activity at 1.25 µM ([2]; Well no.=5294): 93.6%

CCN(CC)CCCCCCCCOC(=O)c1cc(OC)c(OC)c(OC)c1 [TMB-8 hydrochloride]
remaining activity at 3.75 µM ([1]; Well no.=101): 104%
remaining activity at 1.25 µM ([2]; Well no.=101): 104%

CN1[C@@H]2CC[C@H]1C[C@@H](OC(=O)[C@H](CO)c1ccccc1)C2 [L-Hyoscyamine]
remaining activity at 3.75 µM ([1]; Well no.=424): 96.8%
remaining activity at 3.75 µM ([1]; Well no.=6801): 99.4%
remaining activity at 1.25 µM ([2]; Well no.=424): 99.2%
remaining activity at 1.25 µM ([2]; Well no.=6801): 103%

CCCC[S+]([O-])c1sc2nc(-c3cccs3)cc(-c3ccccc3)c2c1N (stereo not shown) [SW033291]
remaining activity at 3.75 µM ([1]; Well no.=8674): 97.5%
remaining activity at 1.25 µM ([2]; Well no.=8674): 101%

CC(=O)N[C@@H](CCC(N)=O)C(=O)O [Aceglutamide]
remaining activity at 3.75 µM ([1]; Well no.=7402): 102%
remaining activity at 1.25 µM ([2]; Well no.=7402): 106%

CCC(=O)Nc1ccc2ncnc(Nc3cccc(Br)c3)c2c1 [PD 174265]
remaining activity at 3.75 µM ([1]; Well no.=2501): 98.5%
remaining activity at 1.25 µM ([2]; Well no.=2501): 101%

CCCOC(=O)c1ccc(O)cc1 [Propylparaben]
remaining activity at 3.75 µM ([1]; Well no.=7453): 101%
remaining activity at 1.25 µM ([2]; Well no.=7453): 105%

O=S(=O)(O)Oc1ccc(C(c2ccc(OS(=O)(=O)O)cc2)c2ccccn2)cc1 [Sodium Picosulfate]
remaining activity at 3.75 µM ([1]; Well no.=4654): 99.8%
remaining activity at 1.25 µM ([2]; Well no.=4654): 103%

O=C1CCC(N2C(=O)c3ccccc3C2=O)C(=O)N1 (stereo not shown) [Thalidomide]
remaining activity at 3.75 µM ([1]; Well no.=2261): 102%
remaining activity at 1.25 µM ([2]; Well no.=2261): 98.2%

CN1CCC(=C2c3ccccc3C=Cc3ccccc32)CC1 [Cyproheptadine (hydrochloride sesquihydrate)]
remaining activity at 3.75 µM ([1]; Well no.=6185): 95.9%
remaining activity at 1.25 µM ([2]; Well no.=6185): 97.8%

O=c1c(O)c(-c2ccccc2O)oc2cc(O)cc(O)c12 [Datiscetin]
remaining activity at 3.75 µM ([1]; Well no.=3251): 96.6%
remaining activity at 1.25 µM ([2]; Well no.=3251): 95.3%

OCCNC1CCCc2c1[nH]c1ccc(-c3ccccc3)cc21 (stereo not shown) [CASIN]
remaining activity at 3.75 µM ([1]; Well no.=7373): 105%
remaining activity at 1.25 µM ([2]; Well no.=7373): 102%

OC1c2ccccc2N=C2CCCN21 (stereo not shown) [Peganole]
remaining activity at 3.75 µM ([1]; Well no.=3541): 104%
remaining activity at 1.25 µM ([2]; Well no.=3541): 95.9%

C[C@]12CC[C@H](O)C[C@@H]1CC[C@@H]1[C@@H]2CC[C@]2(C)C(=O)CC[C@@H]12 [Epiandrosterone]
remaining activity at 3.75 µM ([1]; Well no.=6441): 103%
remaining activity at 1.25 µM ([2]; Well no.=6441): 103%

O=S(=O)(c1cccc2cnccc12)N1CCNCC1 [HA-100]
remaining activity at 3.75 µM ([1]; Well no.=478): 101%
remaining activity at 1.25 µM ([2]; Well no.=478): 102%
